Experimental data from the NIST ThermoML archive (doi:10.1016/j.jct.2007.06.013).
± gives the expanded uncertainty stated by the source.

Assays:
[1] = molar heat capacity at constant pressure; details: Liquid, calorimeter with the thermal relaxation.
[2] = molar heat capacity at constant pressure; xn = mol fraction of the nth substance listed; details: Liquid, calorimeter with the thermal relaxation.

## N [ammonia]
[1]; 280 K, 1000 kPa
  molar heat capacity at constant pressure: 76.81 ± 2 J/K/mol
[1]; 280 K, 5000 kPa
  molar heat capacity at constant pressure: 75.62 ± 4.6 J/K/mol
[1]; 300 K, 5000 kPa
  molar heat capacity at constant pressure: 76.81 ± 3.4 J/K/mol
[1]; 320 K, 5000 kPa
  molar heat capacity at constant pressure: 77.83 ± 2 J/K/mol
[1]; 360 K, 5000 kPa
  molar heat capacity at constant pressure: 95.2 ± 1.7 J/K/mol
[1]; 360 K, 10000 kPa
  molar heat capacity at constant pressure: 92.82 ± 1.7 J/K/mol
[1]; 360 K, 15000 kPa
  molar heat capacity at constant pressure: 90.26 ± 3.1 J/K/mol

## N [ammonia] + O
[2]; 280 K, 100 kPa, x2 = 0.7061
  molar heat capacity at constant pressure: 68.95 ± 1.4 J/K/mol
[2]; 280 K, 100 kPa, x2 = 0.8489
  molar heat capacity at constant pressure: 70.04 ± 1.4 J/K/mol
[2]; 280 K, 1000 kPa, x2 = 0
  molar heat capacity at constant pressure: 76.81 ± 2 J/K/mol
[2]; 280 K, 1000 kPa, x2 = 0.1566
  molar heat capacity at constant pressure: 76.13 ± 1.9 J/K/mol
[2]; 280 K, 1000 kPa, x2 = 0.303
  molar heat capacity at constant pressure: 71.92 ± 1.7 J/K/mol
[2]; 280 K, 1000 kPa, x2 = 0.4956
  molar heat capacity at constant pressure: 76.38 ± 1.6 J/K/mol
[2]; 280 K, 1000 kPa, x2 = 0.7061
  molar heat capacity at constant pressure: 69.48 ± 1.6 J/K/mol
[2]; 280 K, 1000 kPa, x2 = 0.8489
  molar heat capacity at constant pressure: 70.93 ± 1.4 J/K/mol
[2]; 280 K, 5000 kPa, x2 = 0
  molar heat capacity at constant pressure: 75.62 ± 4.6 J/K/mol
[2]; 280 K, 5000 kPa, x2 = 0.1566
  molar heat capacity at constant pressure: 74.58 ± 4.3 J/K/mol
[2]; 280 K, 5000 kPa, x2 = 0.303
  molar heat capacity at constant pressure: 74.17 ± 4 J/K/mol
[2]; 280 K, 5000 kPa, x2 = 0.4956
  molar heat capacity at constant pressure: 76.03 ± 3.9 J/K/mol
[2]; 280 K, 5000 kPa, x2 = 0.7061
  molar heat capacity at constant pressure: 72.68 ± 3.7 J/K/mol
[2]; 280 K, 5000 kPa, x2 = 0.8489
  molar heat capacity at constant pressure: 72.89 ± 3.6 J/K/mol
[2]; 300 K, 100 kPa, x2 = 0.8489
  molar heat capacity at constant pressure: 73.25 ± 0.54 J/K/mol
[2]; 300 K, 1000 kPa, x2 = 0.1566
  molar heat capacity at constant pressure: 78.19 ± 2.9 J/K/mol
[2]; 300 K, 1000 kPa, x2 = 0.303
  molar heat capacity at constant pressure: 77.63 ± 2.8 J/K/mol
[2]; 300 K, 1000 kPa, x2 = 0.4956
  molar heat capacity at constant pressure: 80.94 ± 2.8 J/K/mol
[2]; 300 K, 1000 kPa, x2 = 0.7061
  molar heat capacity at constant pressure: 75.33 ± 2.7 J/K/mol
[2]; 300 K, 1000 kPa, x2 = 0.8489
  molar heat capacity at constant pressure: 74.86 ± 2.5 J/K/mol
[2]; 300 K, 5000 kPa, x2 = 0
  molar heat capacity at constant pressure: 76.81 ± 3.4 J/K/mol
[2]; 300 K, 5000 kPa, x2 = 0.1566
  molar heat capacity at constant pressure: 76.13 ± 3.3 J/K/mol
[2]; 300 K, 5000 kPa, x2 = 0.303
  molar heat capacity at constant pressure: 77.29 ± 3.1 J/K/mol
[2]; 300 K, 5000 kPa, x2 = 0.4956
  molar heat capacity at constant pressure: 78.83 ± 3 J/K/mol
[2]; 300 K, 5000 kPa, x2 = 0.7061
  molar heat capacity at constant pressure: 76.58 ± 2.8 J/K/mol
[2]; 300 K, 5000 kPa, x2 = 0.8489
  molar heat capacity at constant pressure: 74.86 ± 2.7 J/K/mol
[2]; 320 K, 1000 kPa, x2 = 0.4956
  molar heat capacity at constant pressure: 79.71 ± 2.1 J/K/mol
[2]; 320 K, 1000 kPa, x2 = 0.7061
  molar heat capacity at constant pressure: 75.51 ± 1.9 J/K/mol
[2]; 320 K, 1000 kPa, x2 = 0.8489
  molar heat capacity at constant pressure: 73.97 ± 2 J/K/mol
[2]; 320 K, 5000 kPa, x2 = 0
  molar heat capacity at constant pressure: 77.83 ± 2 J/K/mol
[2]; 320 K, 5000 kPa, x2 = 0.1566
  molar heat capacity at constant pressure: 77.85 ± 1.9 J/K/mol
[2]; 320 K, 5000 kPa, x2 = 0.303
  molar heat capacity at constant pressure: 80.93 ± 1.7 J/K/mol
[2]; 320 K, 5000 kPa, x2 = 0.4956
  molar heat capacity at constant pressure: 82.86 ± 1.8 J/K/mol
[2]; 320 K, 5000 kPa, x2 = 0.7061
  molar heat capacity at constant pressure: 79.41 ± 1.6 J/K/mol
[2]; 320 K, 5000 kPa, x2 = 0.8489
  molar heat capacity at constant pressure: 77.18 ± 1.6 J/K/mol
[2]; 360 K, 1000 kPa, x2 = 0.7061
  molar heat capacity at constant pressure: 79.77 ± 1.1 J/K/mol
[2]; 360 K, 1000 kPa, x2 = 0.8489
  molar heat capacity at constant pressure: 76.11 ± 0.89 J/K/mol
[2]; 360 K, 5000 kPa, x2 = 0
  molar heat capacity at constant pressure: 95.2 ± 1.7 J/K/mol
[2]; 360 K, 5000 kPa, x2 = 0.1597
  molar heat capacity at constant pressure: 85.94 ± 1.4 J/K/mol
[2]; 360 K, 5000 kPa, x2 = 0.3048
  molar heat capacity at constant pressure: 84.92 ± 1.2 J/K/mol
[2]; 360 K, 5000 kPa, x2 = 0.4956
  molar heat capacity at constant pressure: 83.21 ± 1.2 J/K/mol
[2]; 360 K, 5000 kPa, x2 = 0.7061
  molar heat capacity at constant pressure: 81.72 ± 1.1 J/K/mol
[2]; 360 K, 5000 kPa, x2 = 0.8489
  molar heat capacity at constant pressure: 77.54 ± 1.1 J/K/mol
[2]; 360 K, 10000 kPa, x2 = 0
  molar heat capacity at constant pressure: 92.82 ± 1.7 J/K/mol
[2]; 360 K, 10000 kPa, x2 = 0.1597
  molar heat capacity at constant pressure: 86.97 ± 1.4 J/K/mol
[2]; 360 K, 10000 kPa, x2 = 0.3048
  molar heat capacity at constant pressure: 88.21 ± 1.4 J/K/mol
[2]; 360 K, 10000 kPa, x2 = 0.4956
  molar heat capacity at constant pressure: 85.32 ± 1.1 J/K/mol
[2]; 360 K, 10000 kPa, x2 = 0.7061
  molar heat capacity at constant pressure: 84.55 ± 1.1 J/K/mol
[2]; 360 K, 10000 kPa, x2 = 0.8489
  molar heat capacity at constant pressure: 80.04 ± 1.1 J/K/mol
[2]; 360 K, 15000 kPa, x2 = 0
  molar heat capacity at constant pressure: 90.26 ± 3.1 J/K/mol
[2]; 360 K, 15000 kPa, x2 = 0.1597
  molar heat capacity at constant pressure: 86.11 ± 2.6 J/K/mol
[2]; 360 K, 15000 kPa, x2 = 0.3048
  molar heat capacity at constant pressure: 86.65 ± 2.4 J/K/mol
[2]; 360 K, 15000 kPa, x2 = 0.4956
  molar heat capacity at constant pressure: 85.84 ± 2.3 J/K/mol
[2]; 360 K, 15000 kPa, x2 = 0.7061
  molar heat capacity at constant pressure: 84.73 ± 2.1 J/K/mol
[2]; 360 K, 15000 kPa, x2 = 0.8489
  molar heat capacity at constant pressure: 79.69 ± 2.1 J/K/mol
